Assay results taken from the supplement of paper PMC10307832.

Columns and labels:
Test in all cases: relative viability (nuclei count vs DMSO), 5 days (fraction); higher = more cells survive
[1] = compound: C1CNCCC1C2=CC(=NN2)C3=CC=NC=C3 + Cc1nc(Nc2ncc(C(=O)Nc3c(C)cccc3Cl)s2)cc(N2CCN(CCO)CC2)n1 [Dasatinib] (partner 0.075 µM)
How it was run: (§1)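 Lung cancer cell lines were pin-tool dosed in 1536-well plates on the day after seeding, with either a lone drug or a fixed anchor-drug dose plus five library-drug doses (not always all listed) in √10 steps. Nuclei were counted on 4× images after 5 days. Relative viability is the ratio of treated-well to vehicle-well nuclei counts, with each value a median of duplicate plates.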

[2] = compound: C[C@@H](N)c1ccc(C(=O)Nc2ccnc3[nH]ccc23)cc1 + COc1cccc2cc(-c3nc([C@H]4CC[C@H](C(=O)O)CC4)n4ncnc(N)c34)[nH]c12 [OSI-027] (partner 0.5 µM)
How it was run: as §1

[3] = compound: C[C@@H](N)c1ccc(C(=O)Nc2ccnc3[nH]ccc23)cc1 + NC(=O)Nc1cc(-c2cccc(F)c2)sc1C(=O)N[C@H]1CCCNC1 [AZD7762] (partner 0.2 µM)
How it was run: as §1

[4] = compound: C1CNCCC1C2=CC(=NN2)C3=CC=NC=C3 + CC(=O)c1c(C)c2cnc(Nc3ccc(N4CCNCC4)cn3)nc2n(C2CCCC2)c1=O [Palbociclib] (partner 0.5 µM)
How it was run: as §1

Cell Line	relative viability ([1]; first compound 0.8 µM)	relative viability ([1]; first compound 2.53 µM)	relative viability ([1]; first compound 8 µM)	relative viability ([2]; first compound 0.04 µM)	relative viability ([2]; first compound 0.1265 µM)	relative viability ([2]; first compound 0.4 µM)	relative viability ([2]; first compound 4 µM)	relative viability ([3]; first compound 0.04 µM)	relative viability ([3]; first compound 0.1265 µM)	relative viability ([3]; first compound 0.4 µM)	relative viability ([3]; first compound 1.265 µM)	relative viability ([3]; first compound 4 µM)	relative viability ([4]; first compound 0.08 µM)	relative viability ([4]; first compound 0.8 µM)	relative viability ([4]; first compound 2.53 µM)	relative viability ([4]; first compound 8 µM)	relative viability ([1]; first compound 0.08 µM)	relative viability ([2]; first compound 1.265 µM)
LC-2-ad	0.647	0.761	0.739	0.763	0.893	0.858	0.625	0.763	0.787	0.823	0.787	0.599	0.532	0.548	0.462	0.437	–	–
LCLC-97TM1	0.784	0.923	0.758	0.69	0.587	0.625	0.701	0.302	0.234	0.425	0.314	0.639	0.206	0.295	0.251	0.194	0.875	0.384
LCLC-103H	0.505	0.396	0.537	0.416	0.453	0.438	0.432	0.709	0.77	0.757	0.658	0.522	0.45	0.407	0.485	0.481	0.462	0.463
LK-2	0.388	0.275	0.482	0.295	0.176	0.212	0.249	0.493	0.385	0.603	0.434	0.621	–	0.658	0.801	0.735	0.236	–
LOU-NH91	0.572	0.624	0.545	0.626	0.667	0.688	0.591	0.622	0.782	0.751	0.628	0.518	0.539	0.539	0.545	0.589	0.527	0.601
LU99A	0.744	0.836	0.645	–	0.328	0.292	0.316	–	0.354	0.467	0.511	0.771	0.405	0.389	0.435	0.391	0.522	0.277
LXF-289	0.184	0.228	0.185	0.639	0.821	0.986	0.763	1.07	1.09	1.23	1.26	0.934	0.599	0.644	0.646	0.58	0.267	0.709
NCI-H23	0.808	0.805	0.908	0.603	0.577	0.592	0.674	0.268	0.169	0.372	–	0.539	0.444	–	0.602	0.647	0.826	–
NCI-H322M	0.228	0.247	0.282	0.656	0.586	0.63	0.706	0.544	0.66	0.647	0.837	0.777	0.489	0.425	0.468	0.508	0.24	–
NCI-H520	0.163	0.187	0.206	0.287	0.333	0.329	0.335	–	–	–	–	–	0.176	0.167	0.219	0.147	0.17	0.334
NCI-H596	0.562	0.654	0.664	0.643	0.592	0.747	0.709	1.02	1.1	0.828	1.01	1.04	–	–	–	–	0.602	–
NCI-H661	0.839	1.05	0.817	0.754	0.682	0.636	0.552	–	–	–	–	–	0.416	0.394	0.394	0.417	0.896	0.593
NCI-H1563	0.465	0.486	0.485	0.796	0.767	0.679	0.846	–	–	–	–	–	–	–	–	–	0.451	0.816
NCI-H1623	0.38	0.557	0.563	0.559	0.418	0.502	0.503	–	–	–	–	–	–	–	–	–	0.574	0.469
NCI-H1648	–	–	–	0.265	0.301	0.267	0.346	0.951	1.01	0.924	1.61	1.35	0.266	0.352	–	0.243	–	0.289
NCI-H1650	0.257	0.356	0.35	0.825	0.773	0.761	0.664	–	–	–	–	–	0.365	0.315	0.379	0.343	0.262	0.707
NCI-H1703	–	–	–	–	–	–	–	–	0.125	0.131	–	0.105	–	–	–	–	–	–
NCI-H2009	0.265	0.318	0.31	0.675	0.77	0.655	0.624	–	–	–	–	–	0.123	0.148	0.189	0.238	0.323	0.714
NCI-H2023	0.661	0.583	0.567	0.475	0.435	0.569	0.509	–	–	–	–	–	0.315	0.379	0.418	0.386	0.48	0.476
NCI-H2228	0.572	0.531	0.484	0.581	0.618	0.65	0.543	–	–	–	–	–	0.822	0.991	0.787	0.863	0.594	0.786
SK-LU-1	0.181	0.206	0.166	0.37	0.356	0.365	0.359	–	–	–	–	–	0.418	0.348	0.43	0.397	0.156	0.385
SK-MES-1	0.221	0.465	0.368	0.61	0.574	0.573	0.602	–	–	–	–	–	0.308	0.316	0.37	0.353	0.424	0.673
SW 1573	0.647	0.658	0.486	0.694	0.604	0.69	0.485	–	–	–	–	–	–	0.471	0.405	0.411	–	0.485
